From patent publication US20190136321A1, “USE OF TRANSLATIONAL PROFILING TO IDENTIFY TARGET MOLECULES FOR THERAPEUTIC TREATMENT” (The Regents of The University of California, priority 2013, published 2019) come the findings set out here.

Holding throughout (format): cell-based, human
The test system of assay [1] is YB1, MTA1, vimentin, and CD44. The assay can be described thus: Western blot and qPCR of mTOR-sensitive invasion genes in PC3 cells. The following applies: starting at 6 hr of treatment. Background: In western blotting, separated proteins are transferred to a membrane and probed.
Assay [2] relates to MDA-MB-361, SKOV3 and ACHN cells. The assay can be described thus: Western blot and qPCR of 4-gene invasion signature in metastatic cell lines. The following applies: MDA-MB-361, SKOV3, ACHN cells, 48-hour treatment, 200 nM. The method, then: (§1) Western blot analysis was performed as previously described (Hsieh et al., Cancer Cell 17:249-261 (2010)) with antibodies specific to phospho-AKT^S473 (Cell Signaling), AKT (Cell Signaling), phospho-p70S6K^T389 (Cell Signaling), phospho-rpS6^S240/244 (Cell Signaling), rpS6 (Cell Signaling), phospho-4EBP1^T37/46 (Cell Signaling), 4EBP1 (Cell Signaling), 4EBP2 (Cell Signaling), YB1 (Cell Signaling), CD44 (Cell Signaling), LEF1 (Cell Signaling), PTEN (Cell Signaling), eEF2 (Cell Signaling), GAPDH (Cell Signaling), vimentin (BD Biosciences), eIF4E (BD Biosciences), Flag (Sigma), β-actin (Sigma), MTA1 (Santa Cruz Biotechnology), Twist (Santa Cruz Biotechnology), rpL28 (Santa Cruz Biotechnology), HA (Covance) and rictor (Bethyl Laboratory).
RNA was isolated using the manufacturer's protocol for RNA extraction with TRIzol Reagent (Invitrogen) using the Pure Link RNA mini kit (Invitrogen). RNA was DNase-treated with Pure Link Dnase (Invitrogen). DNase-treated RNA was transcribed to cDNA with SuperScript III First-Strand Synthesis System for RT-PCR (Invitrogen), and 1 μl of cDNA was used to run a SYBR green detection qPCR assay (SYBR Green Supermix and MyiQ2, Biorad). Primers were used at 200 nM.

For assay [3], the system named is Snail1, LEF1 and Twist1. The assay is described as follows: Snail1 immunocytochemistry, LEF1/Twist1 Western blot and qPCR (YB1 target genes). The following applies: PC3 cells, 200 nM. The method, then:
as §1
RNA was isolated using the manufacturer's protocol for RNA extraction with TRIzol Reagent (Invitrogen) using the Pure Link RNA mini kit (Invitrogen). RNA was DNase-treated with Pure Link Dnase (Invitrogen). DNase-treated RNA was transcribed to cDNA with SuperScript III First-Strand Synthesis System for RT-PCR (Invitrogen), and 1 μl of cDNA was used to run a SYBR green detection qPCR assay (SYBR Green Supermix and MyiQ2, Biorad). […]
Appropriately transfected or treated PC3 cells were plated on a poly-L-lysine-coated chamber slide (Lab-Tek) and cultured for 48 hr. […] Image capture and quantification were completed as described below (see “Immunofluorescence”).

The subject of assay [4] is PC3 cells. The assay is described as follows: Polysome analysis. The following applies: 100 nM, 3-hour. The method, then:
Cells were re-suspended in PBS containing 100 μg ml^−1 cycloheximide (Sigma) and incubated on ice for 10 min. Cells were centrifuged at 300 g for 5 min at 4° C. and lysed in 10 mM Tris-HCl pH 8, 140 mM NaCl, 5 mM MgCl2, 640 U ml^−1 Rnasin, 0.05% NP-40, 250 μg ml^−1 cycloheximide, 20 mM DTT, and protease inhibitors. Samples were incubated for 20 min on ice, then centrifuged once for 5 min at 3,300 g and once for 5 min at 9,300 g, isolating the supernatant after each centrifugation. Lysates were loaded onto 10-50% sucrose gradients containing 0.1 mg ml^−1 heparin and 2 mM DTT and centrifuged at 37,000 r.p.m. for 2.5 hr at 4° C. The sample was subsequently fractionated on a gradient fractionation system (ISCO). RNA was extracted from all fractions and run on a TBE-agarose gel to visualize 18S and 28S rRNA.

Structures are written as SMILES.

As to `CC(C)n1nc(-c2ccc3oc(N)nc3c2)c2c(N)ncnc21` [ATP site inhibitor of mTOR], in assay [1], the “expression of YB1, MTA1, vimentin, and CD44 at the protein but not transcript level” value is given as “selective decrease”. Also, the “4-gene invasion signature response in metastatic cell lines” value in assay [2] is given as “responsive”. Also, the “protein levels but not mRNA levels of YB1 target genes (Snail1, LEF1, Twist1)” value in assay [3] is “decreases”. Besides, in assay [4], the “association of YB1 and rpS19 mRNAs in polysome fractions” value is reported as “differential association”; the “β-actin mRNA association in polysome fractions” value is given as “no change”.
